Measurements from patent publication US4855445A, “Substituted-8-alkenyl-1,3,4,9-tetrahydropyrano[3,4-b]indole-1-acetic acids” (American Home Products Corporation, priority 1987, dated 1989).
Structures can show the parent of a compound that is named as a salt.

How the values were obtained:
[1] = test system: rats; assay: Preventative Adjuvant Edema; assay type: in vivo, Male Sprague Dawley rats; details: p.o., dosed days 0, 1 and 2, edema volume day 3
Experimental: This test is a primary screen for anti-inflammatory drugs.
Male Sprague Dawley rats (180-200 g) are used. The animals have free access to water but food is withdrawn 18 hours before testing.
Drug Preparations and Adminstration:
Freund's complete adjuvant is prepared by suspending 5 mg of killed and dried Mycobacterium butyricum (Difco) in 1 mL mineral oil. The test compounds are dissolved, or suspended in 0.5% Tween 80 in distilled water according to their solubility. […]
The method is essentially that described by Wax et al, J. Pharmacol. Exp. Ther., 192, 166-171 (1975). Groups of rats are injected intradermally in the left hind paw with 0.1 mL of Freund's complete adjuvant. The test compound or vehicle is administered immediately before the adjuvant, 24 hours and 48 hours after the adjuvant (days 0, 1 and 2). The injected hind paw volume is measured before the injection of adjuvant and 24 hrs. after the last drug administration (day 3) by means of a plethysmometer (Buxco Electronics Inc.). The difference between the hind paw volume on day 0 and day 3 represents the edema volume. […]
The mean edema volume (expressed as mL±SEM) is calculated for each group and the percentage protection conferred by the drug is calculated: [formula] where c is the mean edema volume for the vehicle-treated (0.5% Tween 80 in distilled water) controls and t is the mean edema volume for the drug treated group.

[2] = test system: mice; assay: Drug Effects on Phenylbenzoquinone-induced Writhing in Mice; assay type: in vivo, Male Swiss albino mice; details: p.o., PBQ i.p. 60 minutes after dosing, writhes in 15 min
Experimental: A further test used to determine the utility of the compounds of the present invention is designated: Drug Effects on Phenylbenzoquinone-induced Writhing in Mice
The objective of this test is to determine the ability of test drugs to inhibit the nociceptive (pain) response of mice injected with a chemical irritant. This test is a primary screen for both peripheral and centrally acting analgesic drugs.
Male Swiss albino mice (15-25 g). The animals are fasted for 18 hours prior to use but have free access to water.
Drug Preparation and Administration:
Drugs are dissolved or suspended according to their solubility in 0.5% Tween 80 in distilled water. They are administered by gastric gavage in a volume of 5 mL/kg. […]
A modification of the method of Siegmund et al, Proc. Soc. Exp. Biol. Med., 95, 729-731 (1957) is used. Groups of 5 mice are dosed with the test compound or vehicle control. […] The number of writhing or abdominal squirming movements made by each mouse during the following 15 min. period is counted. The experiment is repeated with another group of 5 mice and the mean numbr of writhes per mouse for a group of 10 mice is calculated.
Drug treated and vehicle-treated control groups are compared and the percentage protection conferred by the drug is calculated: [formula] where c=mean number of writhes in the control group where t=mean number of writhes in the test drug group

## C/C=C\c1c(F)ccc2c3c([nH]c12)C(CC)(CC(=O)O)OCC3 (stereo not shown) [Example 1, (Z)-1-Ethyl-7-fluoro-1,3,4,9-tetrahydro-8-(1-propenyl)pyrano[3,4-b]indole-1-acetic Acid, 1,2-Ethanediamine Salt]
[1]; 10 mg/kg
  Preventative Adjuvant Edema, percent inhibition: 69%
[2]; 10 mg/kg
  Phenylquinone Writhing in Mice, percent inhibition: 32%

## C/C=C\c1cccc2c3c([nH]c12)C(CC)(CC(=O)O)OCC3 (stereo not shown) [Example 2, (Z)-1-Ethyl-8-(1-propenyl)-1,3,4,9-tetrahydropyrano[3,4-b]indole-1-acetic Acid]
[1]; 25 mg/kg
  Preventative Adjuvant Edema, percent inhibition: 73%
[2]; 200 mg/kg
  Phenylquinone Writhing in Mice, percent inhibition: 11%
